Source: patent US7109338B2, “1,2-disubstituted 1,4-dihydro-4-oxoquinoline compounds” (priority 1999, dated 2006)
In brackets after ≈: the same amount, converted by molar mass.

Tests used:
HRV33 (1200) = assay: Anti-rhinovirus spectrum (MTT), HRV33; format: cell-based, human rhinovirus; parameters: Anti-Rhinovirus activity, HRV33: unit not given here
HRV5 = assay: Anti-rhinovirus spectrum (MTT), HRV5; format: cell-based, human rhinovirus; parameters: Anti-Rhinovirus activity, HRV5: unit not given here
[1] = tested on: human rhinovirus type 1B (HRV 1B, B632); assay: Anti-rhinovirus activity (MTT), HRV1B; format: cell-based; parameters: Anti-Rhinovirus activity, HRV1B: unit not given here; conditions: for IC50 HRV1B: HeLa (Ohio strain) cells, MTT method, 33° C.
HRV29 (5582) = assay: Anti-rhinovirus spectrum (MTT), HRV29; format: cell-based, human rhinovirus; parameters: Anti-Rhinovirus activity, HRV29: unit not given here
HRV10 (204-CV14) = assay: Anti-rhinovirus spectrum (MTT), HRV10; format: cell-based, human rhinovirus; parameters: Anti-Rhinovirus activity, HRV10: unit not given here
[2] = tested on: simian rotavirus (SRoV, SA11); assay: In vitro anti-rotavirus activity (plaque reduction), SRoV; format: cell-based; conditions: MA104 cells, four days after infection
Description: (§1) Human rotavirus (HROV, Odelia) and simian rotavirus (SRoV, SA11) were used in this experiment. Confluent monolayers of MA104 cells in 6-well multiplate were washed with Eagle MEM containing 0.5 μg/ml of trypsin and were infected with tripsinized-rotavirus (treated with 10 μg/ml of tripsin at 37° C. for 1.5 hr) at 50 PFU per well. After 1 hr of adsorption, the virus inoculum was removed, and the monolayers were washed with Eagle MEM containing 0.5 μg/ml of trypsin and overlaid with Eagle MEM containing 1 μg/ml of trypsin, 0.6% purified agar and the test compounds at various concentrations. The cultures were incubated at 37° C. for 3 days and same overlay medium was added. Four days after infection, the cell sheets were washed with PBS and stained with 1.3% crystal violet in 95% ethanol. The antiviral efficacy of the compounds was expressed as the IC50, that is the concentration of the compounds required to reduce the number of plaques to 50% in the control (virus-infected, but […]).

HRV1A (E28) = assay: Anti-rhinovirus activity (MTT), HRV1A; format: cell-based, human rhinovirus; parameters: Anti-Rhinovirus activity, HRV1A: unit not given here
HeLa-S3 cells = assay: Cytotoxicity (MTT, without virus), HeLa-S3; conditions: HeLa-S3, no virus, incubated for 4 days
HRV 2 (HGP) = assay: Anti-rhinovirus activity (MTT), HRV2; format: cell-based, human rhinovirus; parameters: Anti-Rhinovirus activity, HRV2: unit not given here; conditions: for IC50 HRV2: HeLa (Ohio strain) cells, MTT method, 33° C.
HRV 89 (41617-Gallo) = assay: Anti-rhinovirus activity (MTT), HRV89; format: cell-based, human rhinovirus; parameters: Anti-Rhinovirus activity, HRV89: unit not given here; conditions: for IC50 HRV89: HeLa (Ohio strain) cells, MTT method, 33° C.
HRV16 (11757) = assay: Anti-rhinovirus spectrum (MTT), HRV16; format: cell-based, human rhinovirus; parameters: Anti-Rhinovirus activity, HRV16: unit not given here
HRV3(FEB) = assay: Anti-rhinovirus spectrum (MTT), HRV3; format: cell-based, human rhinovirus; parameters: Anti-Rhinovirus activity, HRV3: unit not given here
[3] = tested on: clinical isolate (89229T); assay: microbe, parasite or virus in culture; format: cell-based, human rhinovirus; parameters: Anti-Rhinovirus activity, Clinical isolated strain: unit not given here
HRV21 (47) = assay: Anti-rhinovirus spectrum (MTT), HRV21; format: cell-based, human rhinovirus; parameters: Anti-Rhinovirus activity, HRV21: unit not given here
HRV14 (1059) = assay: Anti-rhinovirus activity (MTT), HRV14; format: cell-based, human rhinovirus; parameters: Anti-Rhinovirus activity, HRV14: unit not given here
HeLa (Ohio strain)cells = assay: Cytotoxicity (MTT, without virus), HeLa(Ohio); conditions: HeLa(Ohio), no virus, incubated for 4 days
[4] = tested on: coxsackievirus type A7 (CA7); assay: In vitro anti-picornavirus activity (MTT), CA7; format: cell-based; conditions: HeLa-S3 cells, MTT method, 37° C.
HRV32 (363) = assay: Anti-rhinovirus spectrum (MTT), HRV32; format: cell-based, human rhinovirus; parameters: Anti-Rhinovirus activity, HRV32: unit not given here
HRV8(MRH) = assay: Anti-rhinovirus spectrum (MTT), HRV8; format: cell-based, human rhinovirus; parameters: Anti-Rhinovirus activity, HRV8: unit not given here
HRV41 (56110) = assay: Anti-rhinovirus spectrum (MTT), HRV41; format: cell-based, human rhinovirus; parameters: Anti-Rhinovirus activity, HRV41: unit not given here
HRV36 (342H) = assay: Anti-rhinovirus spectrum (MTT), HRV36; format: cell-based, human rhinovirus; parameters: Anti-Rhinovirus activity, HRV36: unit not given here
[5] = tested on: Poliovirus type 1 (Polio 1, Sabin); assay: microbe, parasite or virus in culture; format: cell-based
HRV50(A2#58) = assay: Anti-rhinovirus spectrum (MTT), HRV50; format: cell-based, human rhinovirus; parameters: Anti-Rhinovirus activity, HRV50: unit not given here
HRV39 (209) = assay: Anti-rhinovirus spectrum (MTT), HRV39; format: cell-based, human rhinovirus; parameters: Anti-Rhinovirus activity, HRV39: unit not given here
[6] = tested on: echovirus type 11 (Echo 11, Gregory); assay: In vitro anti-picornavirus activity (MTT), Echo 11; format: cell-based; conditions: HeLa-S3 cells, MTT method, 37° C.
HRV61 (6669-CV39) = assay: Anti-rhinovirus spectrum (MTT), HRV61; format: cell-based, human rhinovirus; parameters: Anti-Rhinovirus activity, HRV61: unit not given here
HRV13 (353) = assay: Anti-rhinovirus spectrum (MTT), HRV13; format: cell-based, human rhinovirus; parameters: Anti-Rhinovirus activity, HRV13: unit not given here
[7] = tested on: coxsackievirus type B4 (CB4,JVB); assay: In vitro anti-picornavirus activity (MTT), CB4; format: cell-based; conditions: HeLa cells, MTT method, 37° C.
HeLa cells = assay: Cytotoxicity (MTT, without virus), HeLa; conditions: HeLa, no virus, incubated for 4 days
[8] = tested on: Human rotavirus (HROV, Odelia); assay: In vitro anti-rotavirus activity (plaque reduction), HRoV; format: cell-based; conditions: MA104 cells, four days after infection
Description: as §1

HRV31 (41F) = assay: Anti-rhinovirus spectrum (MTT), HRV31; format: cell-based, human rhinovirus; parameters: Anti-Rhinovirus activity, HRV31: unit not given here
[9] = HeLa (Ohio strain) cells, MTT method, 33° C.

## Cc1c(-c2ccccc2)n(-c2ccc(F)cc2)c2ccc(C(C)C)cc2c1=O [Compound A323]
HRV33 (1200); Table VII, rhinovirus serotype HRV33
  Anti-Rhinovirus activity, HRV33: 0.30
HRV5; Table VII, rhinovirus serotype HRV5
  Anti-Rhinovirus activity, HRV5: >2.0
[1]
  IC50 HRV1B: 0.27 µg/mL (≈ 0.727 µM)
[1]; Table VII, rhinovirus serotype HRV1B
  Anti-Rhinovirus activity, HRV1B: 0.27
HRV29 (5582); Table VII, rhinovirus serotype HRV29
  Anti-Rhinovirus activity, HRV29: 0.11
HRV10 (204-CV14); Table VII, rhinovirus serotype HRV10
  Anti-Rhinovirus activity, HRV10: 0.032
[2]
  Anti-rotavirus activity IC50 SRoV(SA11): 0.90 µg/mL
HRV1A (E28); Table VII, rhinovirus serotype HRV1A, same method as above
  Anti-Rhinovirus activity, HRV1A: >2.0
HeLa-S3 cells
  Cytotoxicity CC50 HeLa-S3: >2 µg/mL
HRV 2 (HGP)
  IC50 HRV2: 0.038 µg/mL (≈ 0.102 µM)
HRV 2 (HGP); Table VII, rhinovirus serotype HRV2
  Anti-Rhinovirus activity, HRV2: 0.038
HRV 89 (41617-Gallo)
  IC50 HRV89: 0.011 µg/mL (≈ 0.0296 µM)
HRV 89 (41617-Gallo); Table VII, rhinovirus serotype HRV89
  Anti-Rhinovirus activity, HRV89: 0.011
HRV16 (11757); Table VII, rhinovirus serotype HRV16
  Anti-Rhinovirus activity, HRV16: 0.033
HRV3(FEB); Table VII, rhinovirus serotype HRV3
  Anti-Rhinovirus activity, HRV3: >2.0
[3]; Table VII, clinical isolate (89229T)
  Anti-rhinovirus activity Clinically isolated strain: 0.030
HRV21 (47); Table VII, rhinovirus serotype HRV21
  Anti-Rhinovirus activity, HRV21: 0.067
HRV14 (1059); Table VII, rhinovirus serotype HRV14
  Anti-Rhinovirus activity, HRV14: >2.0
HeLa (Ohio strain)cells
  Cytotoxicity CC50 HeLa(Ohio): >2 µg/mL
[4]
  IC50 CA7: >2 µg/mL
HRV32 (363); Table VII, rhinovirus serotype HRV32
  Anti-Rhinovirus activity, HRV32: 0.077
HRV8(MRH); Table VII, rhinovirus serotype HRV8
  Anti-Rhinovirus activity, HRV8: >2.0
HRV41 (56110); Table VII, rhinovirus serotype HRV41
  Anti-Rhinovirus activity, HRV41: 0.058
HRV36 (342H); Table VII, rhinovirus serotype HRV36
  Anti-Rhinovirus activity, HRV36: 0.13
[5]
  IC50 Polio 1: >2 µg/mL
HRV50(A2#58); Table VII, rhinovirus serotype HRV50
  Anti-Rhinovirus activity, HRV50: 0.038
HRV39 (209); Table VII, rhinovirus serotype HRV39
  Anti-Rhinovirus activity, HRV39: 0.018
[6]
  IC50 Echo 11: >2 µg/mL
HRV61 (6669-CV39); Table VII, rhinovirus serotype HRV61
  Anti-Rhinovirus activity, HRV61: 0.30
HRV13 (353); Table VII, rhinovirus serotype HRV13
  Anti-Rhinovirus activity, HRV13: 0.12
[7]
  IC50 CB4: >2 µg/mL
HeLa cells
  Cytotoxicity CC50 HeLa: >2 µg/mL
[8]
  Anti-rotavirus activity IC50 HRoV(Odelia): 1.30 µg/mL
HRV31 (41F); Table VII, rhinovirus serotype HRV31
  Anti-Rhinovirus activity, HRV31: 0.088

## CCc1ccc2c(c1)Cc1c-2n(CC)c2ccc(C(C)C)cc2c1=O [Compound B9, 2.5-Diethyl-8-isopropyl-5,10-dihydro-11H-indeno[1,2-b]quinolin-10-one]
HRV33 (1200); HRV33
  Anti-Rhinovirus activity, HRV33: 0.094
HRV5; HRV5
  Anti-Rhinovirus activity, HRV5: 0.17
[1]; HRV1B
  Anti-Rhinovirus activity, HRV1B: 0.25
[1]
  IC50 HRV1B: 0.25 µg/mL (≈ 0.754 µM)
HRV29 (5582); HRV29
  Anti-Rhinovirus activity, HRV29: 0.19
HRV10 (204-CV14); HRV10
  Anti-Rhinovirus activity, HRV10: 0.47
[2]
  Anti-rotavirus activity IC50 SRoV(SA11): 0.59 µg/mL
HRV1A (E28); HRV1A
  Anti-Rhinovirus activity, HRV1A: >1.0
HRV1A (E28); [9]
  IC50 HRV 1A: >1 µg/mL
HeLa-S3 cells
  Cytotoxicity CC50 HeLa-S3: >1 µg/mL
HRV 2 (HGP); HRV2
  Anti-Rhinovirus activity, HRV2: 0.20
HRV 2 (HGP)
  IC50 HRV2: 0.20 µg/mL (≈ 0.603 µM)
HRV 89 (41617-Gallo); HRV89
  Anti-Rhinovirus activity, HRV89: 0.21
HRV 89 (41617-Gallo)
  IC50 HRV89: 0.21 µg/mL (≈ 0.634 µM)
HRV16 (11757); HRV16
  Anti-Rhinovirus activity, HRV16: 0.47
HRV3(FEB); HRV3
  Anti-Rhinovirus activity, HRV3: 0.23
[3]; Clinical isolated strain
  Anti-Rhinovirus activity, Clinical isolated strain: 0.31
HRV21 (47); HRV21
  Anti-Rhinovirus activity, HRV21: 0.16
HRV14 (1059); HRV14
  Anti-Rhinovirus activity, HRV14: 0.58
HRV14 (1059); [9]
  IC50 HRV 14: 0.58 µg/mL (≈ 1.75 µM)
HeLa (Ohio strain)cells
  Cytotoxicity CC50 HeLa(Ohio): >1 µg/mL
[4]
  IC50 CA7: 0.71 µg/mL (≈ 2.14 µM)
HRV32 (363); HRV32
  Anti-Rhinovirus activity, HRV32: 0.13
HRV8(MRH); HRV8
  Anti-Rhinovirus activity, HRV8: 0.15
HRV41 (56110); HRV41
  Anti-Rhinovirus activity, HRV41: 0.13
HRV36 (342H); HRV36
  Anti-Rhinovirus activity, HRV36: 0.16
[5]
  IC50 Polio 1: 0.18 µg/mL (≈ 0.543 µM)
HRV50(A2#58); HRV50
  Anti-Rhinovirus activity, HRV50: 0.13
HRV39 (209); HRV39
  Anti-Rhinovirus activity, HRV39: 0.20
[6]
  IC50 Echo 11: 0.18 µg/mL (≈ 0.543 µM)
HRV61 (6669-CV39); HRV61
  Anti-Rhinovirus activity, HRV61: 0.16
HRV13 (353); HRV13
  Anti-Rhinovirus activity, HRV13: 0.14
[7]
  IC50 CB4: 0.56 µg/mL (≈ 1.69 µM)
HeLa cells
  Cytotoxicity CC50 HeLa: >1 µg/mL
[8]
  Anti-rotavirus activity IC50 HRoV(Odelia): 0.56 µg/mL
HRV31 (41F); HRV31
  Anti-Rhinovirus activity, HRV31: 0.15
